The source of these data is publication PMC12455572, “Amphipathic Proline-Rich Cell Penetrating Peptides for Targeting Mitochondria” (ACS Chemical Biology, 2025).

Entries after “also recorded” stand apart in the source; their conditions may differ.

The test system of series [1] is MCF-7 cells. The experiment in a line: Confocal microscopy of live cells: cellular uptake and intracellular localization. The class given is cell-based. As to conditions: live MCF-7 cells, 1 h, 37 °C, DMEM + 1% FBS. As to the method: MitoTracker Deep Red was used as a counter stain for mitochondria and Hoechst 33342 for the nucleus. […] To explore whether PPII-helicity is key for mitochondrial localization, we prepared peptide CF-Ahx-(ChaRR)3-NH2 with Arg instead of Gup residues. This control peptide features a flexible conformation as judged by CD spectroscopy (Figure S1B). […] These findings show the importance of the secondary structure of the CPP for subcellular organelle localization.
MCF-7 cells were seeded in a 8-μwell Ibidi plate at 25′000 cells/well in DMEM (100 μL, 10% FCS) and allowed to adhere overnight. The medium was removed, the cells were washed with PBS (200 μL, 1x) and incubated with the peptide solution at 20 μM, 10 μM, 5 μM or 2.5 μM in DMEM (200 μL, 1% FCS) for 1 h at 37 °C. The medium was removed, and the cells were washed with PBS (200 μL, 2x). MitoTracker Deep Red was distributed at 20 nM in DMEM (200 μL, 1% FBS) and the cells were incubated at 37 °C for 25 min. The medium was removed, and the cells were washed with PBS (200 μL, 2x). Hoechst333342 was distributed at 2 μM in DMEM (200 μL, 1% FBS) and the cells were incubated at 37 °C for 5 min. The cells were washed with PBS (200 μL, 2x), and FluoroBrite medium (200 μL) was added. The live cells were monitored on the confocal microscope at 37 °C, 5% CO2.
For the cells subjected to a 24 h rest period, the FluoroBrite medium was exchanged for DMEM (200 μL, 10% FBS) after the initial imaging, and the cells were kept in this medium for 24 h. The culture medium was then exchanged for FluoroBrite DMEM, and the cells were imaged again.
Fluorescence images of cells were collected using a Nikon Eclipse T1 (inverse) microscope equipped with a Yokogawa Confocal Scanner Unit CSU-W1-T2, containing a spinning disk (50 µm). The microscope is equipped with two EMCCD Andor iXon Ultra cameras. Emission in the blue channel (405 nm) was filtered with a 450/50 bandpass filter, emission in the green channel (488 nm) was filtered with a 525/50 bandpass, and the emission in the red channel (641 nm) was filtered with a 708/75 bandpass filter. Fluorescence images were obtained using an oil-immersion objective with a magnification of 100 × 1.4 CFI Plan Apo Oil.
Each experiment was repeated at least three times. The images acquired were adjusted using ImageJ2 software. Correlation coefficients were determined on entire images using JaCOP plugin.1 […]
MCF-7 cells were seeded in a 8-µwell Ibidi plate at 25’000 cells/well in DMEM (100 µL, 10% FCS) and allowed to adhere overnight. The medium was removed. The cells were washed with PBS (200 µL, 1x) and incubated with the peptide solution at 20 µM, 10 µM, 5 µM, or 2.5 µM in DMEM (200 µL, 1% FCS) for 1 h at 37 °C. The medium was removed, and the cells were washed with PBS (200 µL, 2x).
For imaging of mitochondria, MitoTracker Deep Red was added as described in the manuscript. For imaging of endosomes/lysosomes, Ly s o Tr a c k e r Deep Red was added (200 µL, 20 nM in DMEM, 1% FBS) followed by incubation of the cells at 37 °C for 25 min. The medium was removed, and the cells were washed with PBS (200 µL, 2x). For imaging of the nucleus, Hoechst333342 was added at (200 µL, 2 µM in DMEM, 1% FBS) followed by incubation of the cells at 37 °C for 5 min. The cells were washed with PBS (200 µL, 2x), and FluoroBrite medium (200 µL) was added. The live cells were monitored on the confocal microscope […]
MCF-7 cells were seeded in a 96-well plate at 7’500 cells/well in cell culture medium (200 µL, 10% FCS), and allowed to adhere overnight. The medium was removed, the cells were washed with PBS (100 µL, 1x) and incubated with the peptide solution at 20 µM, 10 µM, 5 µM, or 2.5 µM in DMEM (200 µL, 1% FCS) for 1 h at 37 °C. The medium was removed, and the cells were washed with PBS (100 µL, 1x). The MTT solution in DMEM (110 µL, 1.2 mM, 1% FBS) was added. The cells were incubated for 3 h at 37 °C. The […]

For series [2], the system named is MCF-7 cells. Briefly: Flow cytometry (FACS): overall cellular uptake. It counts as cell-based. The following applies: MCF-7, 1 h, 37 °C, Figure S1D. As to the method: MCF-7 cells were seeded in a 24-well plate at 150′000 cells/well in DMEM (1 mL, 10% FCS), and allowed to adhere overnight. The medium was removed, the cells were washed with PBS (250 μL, 1x) and incubated with the peptide solution at 20 μM, 10 μM, 5 μM or 2.5 μM in medium (200 μL, 1% FCS) for 1 h at 37 °C. The medium was removed, and the cells were washed with PBS (250 μL, 2x). Trypsin (100 μL, 0.05%) was added, and the cells were incubated at 37 °C for 5 min. D-PBS with Mg^2+ and Ca^2+ (300 μL, 4 °C) was added, the cells were resuspended and centrifuged for 5 min at 0.4 rcf. The supernatant was carefully removed, and the cells were resuspended in a solution of PBS containing 1.5 μM PI and 2 mM EDTA (400 μL at 4 °C). The cells were added to FACS tubes and kept on ice prior to analysis. Each sample contained 10′000 cells and was analyzed in triplicate. Each experiment was repeated three times.
For the experiments that included the 24 h rest period, the peptides were incubated as described above. After the 1 h incubation time, the cells were washed with PBS (250 μL, 2x), DMEM (250 μL, 10% FBS) was added, and the cells were kept at 37 °C, 5% CO2 for 24 h. For a direct comparison of the effect of a 24 h rest period, another set of peptides was incubated with the cells for 1 h. Then, cells of both sets of experiments (1 h followed by the 24 h rest period versus 1 h incubation) were washed with PBS, treated with trypsin, and prepared for FACS analysis as described above. Each sample was run in triplicate and was repeated three times. […]
MCF-7 cells were obtained from the American Type Culture Collection (ATCC).
The cells were grown in a humidified 5% CO2 atmosphere at 37 °C Dulbecco’s Modified Eagle’s Medium (DMEM), high glucose, GlutaMAXTM (4 mM) supplemented with L-glutamine (4 mM), gentamicin (10 mg/L), […]
Fluorescence-Activated Cell Sorting (FACS) analyzer
On a BD LSRFortessa flow cytometer, CF was excited at 488 nm and monitored with 530/30 bandpass, PI was excited at 561 nm and monitored with a 610/20 bandpass. Mean fluorescence values were determined from the histograms using FlowJo 10.0.6 software while dead cells were removed according to PI staining.
Below is an example, CF-Ahx-(ChaZZ)3, of gating, set on untreated cells and propagated to all samples.
Each sample was run in triplicate, and each experiment was repeated at least three times.
(1 picture or pasted object on this page, not shown here)

The nature of series [3]: RP-HPLC retention time as estimate of hydrophobicity (C4 column, 30 to 55% B). The class given is physicochemical. As to conditions: RP-HPLC used as estimate of hydrophobicity, A H2O/MeCN/TFA (1000/10/1), gradient 30 to 55% B, 20 min, CF-Ahx-labelled peptides. As to the method:
2 (A) General structure of amphipathic peptides, CF-Ahx-[XZZ]3-NH2; CF = 5(6)-Carboxyfluorescein, Ahx = aminohexanoic acid. (B) CD spectra of the peptides, recorded at 50 μM in H2O, pH 5.7. For a comparison with a spectrum of a Gup oligomer, see Figure S2. (C) Retention time of the peptides measured by RP-HPLC on a C4 column with a mobile phase from 30 to 55% of MeCN in H2O/MeCN/TFA (1000/10/1). (D) Representative confocal microscopic images of live MCF-7 cells, incubated for 1 h at 37 °C with peptide solutions at a concentration of 10 μM in DMEM + 1% FBS (left, in green). Mitochondria were stained with Deep Red MitoTracker (middle, in red) and merged images (right, orange/yellow indicating colocalization) with Hoechst33342 stain (blue) for the nucleus. TEXT PRINTED IN THE PICTURE: (C) (ValZZ)3: tr(min): 1.8 | (C) (PheZZ)3: tr(min): 2.9 | (C) (TrpZZ)3: tr(min): 3.2 | (C) (ChaZZ)3: tr(min): 5.4 DOUBTS OF THE COPYIST ABOUT THIS PICTURE: Panel C, column head: the small lowered letter after t is read as r (tr), not certain
The Gup residues should preorganize the peptides into a PPII helix with one hydrophobic and two cationic edges along the PPII helical peptide. Indeed, circular dichroism (CD) spectra of the peptides display the characteristic minimum and maximum at ∼206 nm and ∼224 nm, respectively, of a PPII helix (Figure B). The spectra imply that the non-proline residues in every third position are tolerated within the helical structure. We used reverse phase high performance liquid chromatography (RP-HPLC) for an estimate of the hydrophobicity of the peptides. On a C4 column using two mobile phases A (H2O/MeCN/TFA (1000/10/1)) and B (MeCN) with a gradient of 30% to 55% B, all peptides eluted over 20 min but with different retention times (Figure C). The Cha-containing peptide had the longest retention time, indicating the highest hydrophobicity within the series, followed by the Trp-, Phe-, and Val-peptides.

The conditions of series [4]: earlier work of the authors' group; ref number not given; cited from earlier work. The text has this:
Octa-Gup adopts a polyproline II (PPII) helix in which every third amino acid is aligned (Figure E, center). As a result, the charges are organized along the three edges of the helix. […] In contrast, more flexible analogs–octaarginine and an oligoproline with spacers between the proline backbone and the guanidinium group–are trapped in endo ...

The mark [5] stands for this setting: 10 μM peptide, MitoTracker Deep Red and Hoechst 33342 counterstain.

On to CF-Ahx-(ChaRR)3-NH2, for which the “Cellular uptake and intracellular localization (confocal microscopy)” value in series [1] (5 μM peptide) was “low uptake”; in series [1] (setting [5]) it was “excluded from mitochondria”; in series [1] (10 μM peptide, MitoTracker Deep Red and Hoechst 33342 counterstain, listed as CF-Ahx-(ChaRR)3-NH2), “high uptake into the cytoplasm and the nucleus, but little to no uptake into mitochondria”. Moreover, in series [2], the “Cellular uptake compared to (ChaZZ)3 (FACS)” value is “enhanced cellular uptake”.
On to CF-Ahx-(ChaZZ)2-NH2, for which, in series [1] (20 μM peptide), the “Cellular uptake and intracellular localization (confocal microscopy)” value is given as “did not penetrate into the cells; also recorded: intracellular fluorescence was not detected”. For the same substance, the Retention time tr in series [3] is listed as 4.9 min.
Consider “CF-Ahx-VZZVZZVZZ [(ValZZ)3, 9-mer CF-Ahx-(XZZ)3-NH2 with X = valine, Z = Gup]”, for which the “Cellular uptake and intracellular localization (confocal microscopy)” value in series [1] (setting [5]) and in series [1] (20 μM peptide) was “little cellular uptake” throughout.
Regarding octaarginine, the “Cellular uptake and intracellular localization” value in series [4] is “trapped in endosomes to a significant extent and exhibit reduced cellular uptake”.
